Like-named read-outs stand apart in the source and are kept apart here. Square brackets hold non-standard residues; d marks the D form. Peptide text beside a SMILES is read from it. 3Pal = N[C@@H](Cc1cccnc1)C(=O)O; 4Pal = N[C@@H](Cc1ccncc1)C(=O)O
Assays:
[1] = molecular target: T1, δOR (Homo sapiens, UniProt P41143); settings: at best; cited from earlier work
[2] = molecular target: T2, HA-mouse µOR (Mus musculus, UniProt P42866); experiment: cAMP GloSensor inhibition assay in HEK 293 cells; type: cell-based; settings: HEK 293, forskolin 30 µM; read-out: cAMP IC50 (nM) µOR
T2 construct: HA; expressed in transfected cells; host or cells: HEK 293
T2 sequence (P42866 whole entry): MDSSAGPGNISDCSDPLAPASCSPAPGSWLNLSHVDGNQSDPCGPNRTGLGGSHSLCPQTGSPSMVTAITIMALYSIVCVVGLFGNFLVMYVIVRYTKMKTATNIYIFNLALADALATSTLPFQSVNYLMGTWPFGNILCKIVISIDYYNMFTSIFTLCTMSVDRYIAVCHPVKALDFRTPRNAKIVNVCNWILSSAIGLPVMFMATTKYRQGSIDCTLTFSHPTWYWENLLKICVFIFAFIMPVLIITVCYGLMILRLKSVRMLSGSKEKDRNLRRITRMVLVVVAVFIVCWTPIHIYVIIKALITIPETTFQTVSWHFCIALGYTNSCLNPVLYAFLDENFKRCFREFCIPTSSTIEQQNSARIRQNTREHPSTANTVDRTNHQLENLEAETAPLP
Protocol: (§2) In brief, for cAMP inhibition assays HEK 293 (Life Technologies, Grand Island, NY, USA) cells were transiently transfected in a 1:3 ratio with FLAG-mouse δOR, or HA-mouse µOR and pGloSensor22F-cAMP plasmids (Promega, Madison, WI, USA) using Xtremegene9 (Sigma). Two days post-transfection cells (20,000 cells/well, 7.5 µL) were seeded in low volume Greiner 384-well plates (#82051-458, VWR, Batavia, IL, USA) and were incubated with Glosensor reagent (Promega, 7.5 µL, 2% final concentration) for 90 min at room temperature. […] For β-arrestin recruitment assays, CHO-human µOR PathHunter β-arrestin 2 cells or CHO-human δOR PathHunter β-arrestin 2 cells (DiscoverX, Fremont, CA, USA) were plated (2,500 cells/well, 10 µL) one day prior to stimulation with 2.5 µL drug solution for 90 min at 37 °C/5% CO2, after which cells were incubated with 6 µL cell PathHunter assay buffer (DiscoverX) for 60 min at room temperature as per the manufacturer’s protocol. Luminescence for each of these assays was measured using a FlexStation3 plate reader (Molecular Devices, Sunnyvale, CA, USA).
(§3) All data are presented as means ± standard error of the mean, and analysis was performed using GraphPad Prism 8 software (GraphPad Software, La Jolla, CA). For in vitro assays, nonlinear regression was conducted to determine pIC50 (cAMP) or pEC50 (β-arrestin 2 recruitment). […] The averages of each independent run were counted as a single experiment and combined to provide a composite curve in favor of providing a ‘representative’ curve. In each experimental run, a positive control/reference compound was utilized to allow the data to be normalized and to calculate the log bias value. A minimum of three independent values were obtained for each compound in each of the cellular assays.

[3] = molecular target: T1, δOR; experiment: Competition radioligand binding, [3H]DPDPE; settings: for Binding Selectivity (δOR vs µOR): ratio of Ki values
Protocol: (§1) Next, 100 µL of membrane suspension containing 7 µg protein was added to the agonist wells and incubated for 90 min at room temperature. The reaction mixture was then filtered over a GF-B filter plate (Perkin Elmer) followed by four quick washes with ice-cold 50 mM Tris HCl. The plate was dried overnight, after which 50 µL scintillation fluid (Ultimagold uLLT) was added and radioactivity was counted on a Packard TopCount NXT scintillation counter. All working solutions were prepared in a radioligand assay buffer containing 50 mM Tris HCl, 10 mM MgCl2, and 1 mM ethylenediaminetetraacetic acid at pH 7.4.

[4] = Rat plasma stability; settings: for Degradation Products (First Appearance): rat plasma, UPLC-mass spectrometry, time of first appearance in parentheses; for half-life: rat, plasma
Protocol: Peptides were synthesized using an Aapptec Focus XC automated peptide synthesizer coupled with a heating system using a solid phase peptide synthesis protocol using Fmoc chemistry. Preparative RP-HPLC was performed using an appropriate column and solvent system (described below) and final purity of peptides was determined by UV area % from UPLC analysis. Peptides were purified by Teledyne ISCO EZ Prep system on RediSep® C18 Prep column (30 × 250 mm, 100 Å). […] Plasma stability was also assessed using the above UPLC column and solvent gradient program using a Waters H class Plus Acquity UPLC system coupled with a QDa detector using protocol B.
Sprague Dawley rat plasma containing K2-ethylenediaminetetraacetic acid (Innovative Research, MI, USA) was transferred into 300 µL aliquots and stored at −20 °C until use. […] After adding analog, an aliquot of the mixture was removed at each indicated time point (0, 5, 10, 15, 20, 30, 60, 120, 240 min) and immediately quenched with 100 μL of a methanol solution containing 20 μM Fmoc-Leu-OH as an internal standard. […] Then, the filtrate was transferred into vials and a 5 μL sample of the resulting solution was analyzed on an UPLC system coupled with a QDa detector. […] Determination of half-life (t1/2) was carried out by using the GraphPad Prism one-phase decay method.

[5] = molecular target: T3, µOR (Homo sapiens, UniProt P35372); experiment: Competition radioligand binding, [3H]DAMGO
T3 sequence (P35372 whole entry): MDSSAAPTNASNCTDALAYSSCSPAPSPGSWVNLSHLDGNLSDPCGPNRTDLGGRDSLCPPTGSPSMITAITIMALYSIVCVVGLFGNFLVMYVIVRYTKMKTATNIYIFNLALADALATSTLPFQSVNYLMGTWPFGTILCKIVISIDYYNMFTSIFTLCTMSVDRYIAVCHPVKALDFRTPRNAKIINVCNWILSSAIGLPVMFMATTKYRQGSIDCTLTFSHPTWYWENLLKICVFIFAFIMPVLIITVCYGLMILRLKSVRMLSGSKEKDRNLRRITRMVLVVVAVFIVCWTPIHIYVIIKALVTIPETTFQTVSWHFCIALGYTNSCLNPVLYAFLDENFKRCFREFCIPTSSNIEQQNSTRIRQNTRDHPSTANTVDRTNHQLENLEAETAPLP
Protocol: as §1

[6] = molecular target: T3, µOR; experiment: cell-based; type: cell-based; settings: CHO PathHunter; read-out: β-Arrestin 2 EC50 (nM) µOR
Protocol: as §2, §3

[7] = molecular target: T1, δOR; experiment: PathHunter β-arrestin 2 recruitment assay in CHO cells
Protocol: as §2, §3

[8] = molecular target: T4, FLAG-mouse δOR (Mus musculus, UniProt P32300); experiment: cAMP GloSensor inhibition assay in HEK 293 cells; type: cell-based; settings: for IC50: HEK 293, forskolin 30 µM, read-out: cAMP IC50 (nM) δOR; for G Protein Selectivity (δOR vs µOR): cAMP potency δOR vs µOR
T4 construct: FLAG; expressed in transfected cells; host or cells: HEK 293
T4 sequence (P32300 whole entry): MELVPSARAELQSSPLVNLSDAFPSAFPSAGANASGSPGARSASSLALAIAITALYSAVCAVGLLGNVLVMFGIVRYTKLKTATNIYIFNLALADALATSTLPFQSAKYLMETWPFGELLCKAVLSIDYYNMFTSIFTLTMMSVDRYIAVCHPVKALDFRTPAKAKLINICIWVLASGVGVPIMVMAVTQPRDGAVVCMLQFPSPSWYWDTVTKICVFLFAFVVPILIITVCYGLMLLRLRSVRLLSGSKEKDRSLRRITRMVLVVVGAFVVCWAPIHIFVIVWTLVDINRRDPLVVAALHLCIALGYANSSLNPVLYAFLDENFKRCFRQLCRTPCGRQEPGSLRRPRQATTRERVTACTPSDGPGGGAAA
Protocol: as §2, §3

[9] = molecular target: T1, δOR; settings: cited from earlier work
[10] = molecular target: T1, δOR; settings: cited from earlier work; remark: listed apart in the source
[11] = molecular target: T1, δOR; settings: literature value; cited from earlier work
[12] = molecular target: T3, µOR; settings: BRET (β-arrestin 2) and EPAC (cAMP) assays; footnote prints reference 26; cited from earlier work

T1 sequence (P41143 whole entry): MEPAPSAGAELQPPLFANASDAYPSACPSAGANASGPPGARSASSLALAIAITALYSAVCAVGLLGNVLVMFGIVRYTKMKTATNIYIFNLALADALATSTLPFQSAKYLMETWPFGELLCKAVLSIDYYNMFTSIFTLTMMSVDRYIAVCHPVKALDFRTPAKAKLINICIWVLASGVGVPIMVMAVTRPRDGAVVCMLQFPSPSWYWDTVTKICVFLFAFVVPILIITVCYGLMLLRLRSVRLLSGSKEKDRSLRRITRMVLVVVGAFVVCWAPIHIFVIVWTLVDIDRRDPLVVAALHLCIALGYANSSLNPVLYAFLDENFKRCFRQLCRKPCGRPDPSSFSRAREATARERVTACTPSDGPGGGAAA

| Molecule | selectivity for δORs over µORs [1] [fold] | IC50 [2] [nM] | Ki [3] [µM] | Binding Selectivity (δOR vs µOR) [3] | Degradation Products (First Appearance) [4] | half-life [4] [h] | Ki [5] [µM] | EC50 [6] [nM] | EC50 [7] [µM] | IC50 [8] [nM] | G Protein Selectivity (δOR vs µOR) [8] | β-arrestin 2 efficacy [10] [%] | other results |
| --- | --- | --- | --- | --- | --- | --- | --- | --- | --- | --- | --- | --- | --- |
| Dmt-Tic-Gly-NH-Ph | ≤ 10 |  |  |  |  |  |  |  |  |  |  |  |  |
| CC(C)C[C@H](NC(=O)[C@H](Cc1cccnc1)NC(=O)CNC(=O)CNC(=O)[C@@H](N)Cc1ccc(O)cc1)C(=O)O [Compound 1k] (H-YGG[3Pal]L-OH; N-terminus and C-terminus assumed) |  | 234 | 0.0331 | 4.8 | (3-pyridyl)Ala-Leu (10 min) Gly-Gly-(3-pyridyl)Ala-Leu (20 min) | 0.9 | 0.158 | 41700 | 1.12 | 47.9 | 4.9 |  |  |
| CC(C)C[C@H](NC(=O)[C@H](Cc1ccncc1)NC(=O)CNC(=O)CNC(=O)[C@@H](N)Cc1ccc(O)cc1)C(=O)O [Compound 1l] (H-YGG[4Pal]L-OH; N-terminus and C-terminus assumed) |  | 302 | 0.0204 | 1.9 | (4-pyridyl)Ala-Leu (10 min) Gly-Gly-(4-pyridyl)Ala-Leu (30 min) | 1.3 | 0.0389 | 37200 | 0.398 | 30.2 | 10 |  |  |
| rubiscolin-6 |  |  |  |  |  |  |  |  |  |  |  | 20 | Bias Factor δOR ([9]; literature value): 2.0 |
| aza-β-homoleucine-enkephalin | ≤ 10 |  |  |  |  |  |  |  |  |  |  | 64 | Bias Factor δOR ([9]; BRET (β-arrestin 2) and EPAC (cAMP) assays, footnote prints reference 26): 5.2; Bias Factor δOR ([9]; BRET (β-arrestin 2) and EPAC (cAMP) assays, footnote prints reference 26, listed as Aza-β-homoleucine): 5.2 ^¶; G Protein Selectivity (δOR vs µOR) [11]: 9.9 [23]; Bias Factor µOR (LE = Ref) [12]: 1.2 |
